For orientation: melting point means the temperature of the solid-liquid transition.

The structures appear in SMILES notation.

Compound `CC12CCC(/C(=C\c3ccc(OCCC[Si](C)(C)C)cc3)C1=O)C2(C)C` (stereo not drawn) gave a melting point of 100 to 101 °C. Turning to `CC12CCC(/C(=C\c3ccc(OCCC[Si](C)(O[Si](C)(C)C)O[Si](C)(C)C)cc3)C1=O)C2(C)C` (stereo not drawn), the melting point lay in the range of 47 to 48 °C.

The compound `COc1cc(/C=C2/C(=O)C3(C)CCC2C3(C)C)ccc1OCCC[Si](C)(C)C` (stereo not drawn) gave a melting point of 79 to 80 °C.

(Values after US6429326B1, “Benzylidenecamphor-substituted silanes/organosiloxanes for use in photostabilizing sunscreen compositions comprising dibenzoylmethane compounds” (Societe L'Oreal, priority 1998, dated 2002).)
